{
  "source": "patent US20240269139A1",
  "about": "“COMPOUNDS FOR TARGETED PROTEIN DEGRADATION OF KINASES” (DANA-FARBER CANCER INSTITUTE, INC., priority 2020, published 2024)",
  "type_in_all_cases": "cell-based",
  "key": {"[1]": {"biological_target": "protein kinases (human kinome) (Homo sapiens, UniProt P07948)", "sequence (P07948 whole entry)": "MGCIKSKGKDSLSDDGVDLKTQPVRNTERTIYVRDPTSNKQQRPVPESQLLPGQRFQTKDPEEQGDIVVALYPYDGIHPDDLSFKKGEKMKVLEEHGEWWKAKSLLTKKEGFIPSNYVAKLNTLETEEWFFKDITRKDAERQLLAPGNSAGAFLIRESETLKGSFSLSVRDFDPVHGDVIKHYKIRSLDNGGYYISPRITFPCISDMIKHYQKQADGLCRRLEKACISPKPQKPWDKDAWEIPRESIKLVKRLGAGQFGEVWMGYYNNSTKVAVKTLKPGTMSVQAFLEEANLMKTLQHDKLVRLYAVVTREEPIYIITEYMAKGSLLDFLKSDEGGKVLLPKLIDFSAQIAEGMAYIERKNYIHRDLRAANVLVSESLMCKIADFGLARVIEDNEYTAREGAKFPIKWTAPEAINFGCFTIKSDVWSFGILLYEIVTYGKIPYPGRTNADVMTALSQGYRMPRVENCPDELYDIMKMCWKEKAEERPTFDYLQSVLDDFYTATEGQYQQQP", "conditions": "for logFC: LYN (P07948-1)"}, "[2]": {"biological_target": "T1, protein kinases (human kinome) (Homo sapiens, UniProt O14757)", "T1 sequence (O14757 1-476)": "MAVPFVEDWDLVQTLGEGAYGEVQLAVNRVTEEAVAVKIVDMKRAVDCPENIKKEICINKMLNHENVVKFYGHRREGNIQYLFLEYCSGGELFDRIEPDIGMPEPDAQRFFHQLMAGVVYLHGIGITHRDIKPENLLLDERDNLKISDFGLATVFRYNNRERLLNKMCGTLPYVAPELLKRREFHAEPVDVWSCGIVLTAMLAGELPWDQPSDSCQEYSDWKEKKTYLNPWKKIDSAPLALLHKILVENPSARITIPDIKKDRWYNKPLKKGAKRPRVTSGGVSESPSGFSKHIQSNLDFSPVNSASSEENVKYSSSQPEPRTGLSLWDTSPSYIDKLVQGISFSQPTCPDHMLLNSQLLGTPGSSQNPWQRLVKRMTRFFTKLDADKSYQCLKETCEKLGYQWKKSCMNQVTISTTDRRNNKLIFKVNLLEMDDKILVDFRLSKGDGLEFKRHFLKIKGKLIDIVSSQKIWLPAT", "conditions": "for logFC: CHEK1 (O14757)"}, "[3]": {"biological_target": "T2, protein kinases (human kinome) (Homo sapiens, UniProt Q86YV5)", "T2 sequence (Q86YV5 1-1406)": "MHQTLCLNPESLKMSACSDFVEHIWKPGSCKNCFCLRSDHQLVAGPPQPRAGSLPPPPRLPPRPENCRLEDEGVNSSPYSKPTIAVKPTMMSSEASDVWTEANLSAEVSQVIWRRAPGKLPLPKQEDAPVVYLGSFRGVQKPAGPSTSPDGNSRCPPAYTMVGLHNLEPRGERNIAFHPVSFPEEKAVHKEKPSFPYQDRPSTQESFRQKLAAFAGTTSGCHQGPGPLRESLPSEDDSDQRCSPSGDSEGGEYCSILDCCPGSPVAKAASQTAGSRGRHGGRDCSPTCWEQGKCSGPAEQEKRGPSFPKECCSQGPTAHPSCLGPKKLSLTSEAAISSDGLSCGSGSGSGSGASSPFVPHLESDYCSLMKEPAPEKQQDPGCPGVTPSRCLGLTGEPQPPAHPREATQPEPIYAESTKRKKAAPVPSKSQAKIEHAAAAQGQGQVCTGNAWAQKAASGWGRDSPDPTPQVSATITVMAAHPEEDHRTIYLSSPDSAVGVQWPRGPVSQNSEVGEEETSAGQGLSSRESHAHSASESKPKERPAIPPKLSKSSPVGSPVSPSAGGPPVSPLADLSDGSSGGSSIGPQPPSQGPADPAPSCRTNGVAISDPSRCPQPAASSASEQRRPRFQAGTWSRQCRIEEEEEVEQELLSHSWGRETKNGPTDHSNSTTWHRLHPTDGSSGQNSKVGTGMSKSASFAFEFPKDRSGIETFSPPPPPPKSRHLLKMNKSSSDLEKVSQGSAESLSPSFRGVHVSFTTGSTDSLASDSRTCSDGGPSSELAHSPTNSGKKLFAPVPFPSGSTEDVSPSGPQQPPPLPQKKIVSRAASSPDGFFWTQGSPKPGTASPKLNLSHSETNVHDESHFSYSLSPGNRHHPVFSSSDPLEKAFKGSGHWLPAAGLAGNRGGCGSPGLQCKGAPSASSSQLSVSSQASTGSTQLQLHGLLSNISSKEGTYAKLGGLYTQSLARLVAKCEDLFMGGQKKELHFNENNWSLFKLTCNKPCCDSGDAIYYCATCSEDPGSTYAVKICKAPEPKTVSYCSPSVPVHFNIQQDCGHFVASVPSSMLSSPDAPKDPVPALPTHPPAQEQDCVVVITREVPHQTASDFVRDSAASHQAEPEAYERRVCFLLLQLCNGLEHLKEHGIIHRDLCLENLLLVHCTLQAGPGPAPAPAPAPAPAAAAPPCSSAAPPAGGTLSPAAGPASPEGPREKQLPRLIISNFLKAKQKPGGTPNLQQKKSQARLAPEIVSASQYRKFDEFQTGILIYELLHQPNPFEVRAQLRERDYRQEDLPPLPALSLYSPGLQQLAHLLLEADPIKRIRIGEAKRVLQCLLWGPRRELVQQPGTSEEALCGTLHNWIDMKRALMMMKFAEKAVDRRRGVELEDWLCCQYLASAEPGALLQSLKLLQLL", "conditions": "PRAG1 Q86YV5"}},
  "note": "Where two headings read alike, the source gives them in different places.",
  "data": [
    {"smiles": "Cc1ccc(NC(=O)c2cccc(C(F)(F)F)c2)cc1N1Cc2cnc(Nc3ccc(N4CCN(Cc5cn(CCCCCOc6cccc7c6C(=O)N(C6CCC(=O)NC6=O)C7=O)nn5)CC4)nc3)nc2N(C)C1=O", "note": "(centres unmarked) [DB0646, N-(3-(7-((6-(4-((1-(5-((2-(2,6-Dioxopiperidin-3-yl)-1,3-dioxoisoindolin-4-yl)oxy)pentyl)-1H-1,2,3-triazol-4-yl)methyl)piperazin-1-v)pyridin-3-yl)amino)-1-methyl-2-oxo-1,4-dihydropyrimido[4,5-d]pyrimidin-3(2H)-yl)-4-methylphenyl)-3-(trifluoromethyl)benzamide]", "values": [
      {"measurement": "logFC of LYN (P07948-1)", "setting": "[1]; Experiment wp172", "value": "−0.7938"},
      {"measurement": "logFC", "setting": "[1]; experiment wp172", "value": "−0.7938"}
    ]},
    {"smiles": "Cc1ncsc1-c1ccc([C@H](C)NC(=O)[C@@H]2C[C@@H](O)CN2C(=O)[C@@H](NC(=O)CCOCCOCCN2CCN(c3ccc(Nc4ncc(Cl)c(Nc5ccccc5S(=O)(=O)C(C)C)n4)cc3)CC2)C(C)(C)C)cc1", "note": "[FMF.06.098.1]", "values": [
      {"measurement": "logFC", "setting": "[2]; experiment wp108", "value": "−0.3674"},
      {"measurement": "logFC", "setting": "[2]; experiment wp114", "value": "−0.4124"},
      {"measurement": "logFC of CHEK1 (O14757)", "setting": "[2]; Experiment wp108", "value": "−0.3674"},
      {"measurement": "logFC of CHEK1 (O14757)", "setting": "[2]; Experiment wp114", "value": "−0.4124"}
    ]},
    {"smiles": "O=C1CCC(N2C(=O)c3cccc(NCCCCCCCCN4CCC(NC(=O)c5[nH]ncc5NC(=O)c5c(Cl)cccc5Cl)CC4)c3C2=O)C(=O)N1", "note": "(centres unmarked) [MFH.5.126.1]", "values": [
      {"measurement": "logFC", "setting": "[2]; experiment wp076", "value": "−0.3606"},
      {"measurement": "logFC of CHEK1 (O14757)", "setting": "[2]; experiment wp076", "value": "−0.3606"}
    ]},
    {"smiles": "Cc1ccc(C(=O)Nc2ccc(CN3CCN(CCCOCCOCCOCCNC(=O)COc4cccc5c4C(=O)N(C4CCC(=O)NC4=O)C5=O)CC3)c(C(F)(F)F)c2)cc1C#Cc1cnc2cccnn12", "note": "(centres unmarked) [SB1.G.187]", "values": [
      {"measurement": "logFC", "setting": "[1]; experiment wp172", "value": "−1.23"},
      {"measurement": "logFC LYN (P07948-1)", "setting": "[1]; experiment wp172, direction of change down", "value": "−1.23"}
    ]},
    {"smiles": "CC(C)S(=O)(=O)c1ccccc1Nc1nc(Nc2ccc(N3CCN(CCOCCNC(=O)CNc4cccc5c4C(=O)N(C4CCC(=O)NC4=O)C5=O)CC3)cc2)ncc1Cl", "note": "(centres unmarked) [SK.3.91]", "values": [
      {"measurement": "logFC", "setting": "[3]; experiment wp107", "value": "−0.3692"},
      {"measurement": "logFC PRAG1", "setting": "[3]; experiment wp107", "value": "−0.3692"},
      {"measurement": "logFC", "setting": "[3]; experiment wp133, 2 hr", "value": "−0.3667"},
      {"measurement": "logFC PRAG1", "setting": "[3]; experiment wp133, 2 hr", "value": "−0.3667"},
      {"measurement": "logFC", "setting": "[3]; experiment wp133, 4 hr", "value": "−0.4352"},
      {"measurement": "logFC PRAG1", "setting": "[3]; experiment wp133, 4 hr", "value": "−0.4352"}
    ]},
    {"smiles": "CC(C)S(=O)(=O)c1ccccc1Nc1nc(Nc2ccc(N3CCN(CCOCCOCCNC(=O)CNc4cccc5c4C(=O)N(C4CCC(=O)NC4=O)C5=O)CC3)cc2)ncc1Cl", "note": "(centres unmarked) [TL12.186]", "values": [
      {"measurement": "logFC", "setting": "[3]; experiment wp131", "value": "−0.4243"},
      {"measurement": "logFC PRAG1", "setting": "[3]; experiment wp131", "value": "−0.4243"},
      {"measurement": "logFC", "setting": "[3]; experiment wp137", "value": "−0.3459"},
      {"measurement": "logFC PRAG1", "setting": "[3]; experiment wp137", "value": "−0.3459"}
    ]}
  ]
}
